Data published in BindingDB's records for doi:10.1016/j.bmcl.2011.01.001 (Abbott Laboratories, 2011).

Target: Aurora kinase A (Homo sapiens) (UniProt O14965)
Assay: Inhibition of aurora 2

Sequence of Aurora kinase A (Homo sapiens) (O14965 whole entry, looked up): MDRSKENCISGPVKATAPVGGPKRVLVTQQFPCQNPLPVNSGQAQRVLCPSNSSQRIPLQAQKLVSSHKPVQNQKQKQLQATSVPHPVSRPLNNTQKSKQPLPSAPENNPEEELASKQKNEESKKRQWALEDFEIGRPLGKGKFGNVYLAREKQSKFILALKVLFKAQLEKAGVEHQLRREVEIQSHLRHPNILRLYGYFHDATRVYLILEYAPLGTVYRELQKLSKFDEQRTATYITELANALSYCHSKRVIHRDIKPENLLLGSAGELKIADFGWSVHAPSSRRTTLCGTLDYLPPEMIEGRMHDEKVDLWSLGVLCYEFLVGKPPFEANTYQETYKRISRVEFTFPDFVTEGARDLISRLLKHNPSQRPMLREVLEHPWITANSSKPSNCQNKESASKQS

| Compound | Ki [µM] |
| --- | --- |
| CCCCNc1c(-c2ccc3[nH]ncc3c2)nc2ncccn12 [N-butyl-2-(1H-indazol-5-yl)imidazo[1,2-a]pyrimidin-3-amine] | > 4.9 |
| c1ccc(CNc2nc(-c3ccc4[nH]ncc4c3)c(-c3ccccc3)s2)cc1 [N-benzyl-4-(1H-indazol-5-yl)-5-phenylthiazol-2-amine] | > 4.9 |
| Clc1ccc(Nc2c(-c3ccc4[nH]ncc4c3)nc3ncccn23)cc1 [N-(4-chlorophenyl)-2-(1H-indazol-5-yl)imidazo[1,2-a]pyrimidin-3-amine] | 2.81 |
| c1cn2c(NC3CCCCC3)c(-c3ccc4[nH]ncc4c3)nc2cn1 [N-cyclohexyl-2-(1H-indazol-5-yl)imidazo[1,2-a]pyrazin-3-amine] | 2.07 |
| Cc1nc(-c2ccc3[nH]ncc3c2)cs1 [4-(1H-indazol-5-yl)-2-methylthiazole] | 4.45 |
| CN(C)CCn1cnc(-c2ccc(F)cc2)c1-c1ccc2[nH]ncc2c1 [2-(4-(4-fluorophenyl)-5-(1H-indazol-5-yl)-1H-imidazol-1-yl)-N,N-dimethylethanamine] | > 4.9 |
| Fc1ccc(-c2ncn(CCCN3CCOCC3)c2-c2ccc3[nH]ncc3c2)cc1 [4-(3-(4-(4-fluorophenyl)-5-(1H-indazol-5-yl)-1H-imidazol-1-yl)propyl)morpholine] | > 4.9 |
| CCNc1nc(-c2ccc3[nH]ncc3c2)cs1 [N-ethyl-4-(1H-indazol-5-yl)thiazol-2-amine] | 3.41 |
| c1ccc(Nc2nc(-c3ccc4[nH]ncc4c3)c(-c3ccccc3)s2)cc1 [4-(1H-indazol-5-yl)-N,5-diphenylthiazol-2-amine] | > 4.9 |
| c1ccn2c(NC3CCCCC3)c(-c3ccc4[nH]ncc4c3)nc2c1 [N-cyclohexyl-2-(1H-indazol-5-yl)imidazo[1,2-a]pyridin-3-amine] | 8.67 |
| Nc1nc(-c2ccc3[nH]ncc3c2)cs1 [4-(1H-indazol-5-yl)thiazol-2-amine] | 2.12 |
| c1ccc(CCNc2nc(-c3ccc4[nH]ncc4c3)cs2)cc1 [4-(1H-indazol-5-yl)-N-phenethylthiazol-2-amine] | 0.81 |
| Fc1ccc(-c2ncn(C3CCN(Cc4ccccc4)C3)c2-c2ccc3[nH]ncc3c2)cc1 (centres undefined) [5-(1-(1-benzylpyrrolidin-3-yl)-4-(4-fluorophenyl)-1H-imidazol-5-yl)-1H-indazole] | > 4.9 |
| c1ccc(-c2c(-c3ccc4[nH]ncc4c3)nc3ncccn23)cc1 [2-(1H-indazol-5-yl)-3-phenylimidazo[1,2-a]pyrimidine] | > 4.9 |
